Measured values as given in paper PMC2933030 (Biochemical Journal, 2010).

How the values were obtained:
[1] = tested on: bulk protein turnover in HCT116 cells; assay: Bulk protein turnover assay; type: cell-based
[2] = target: human erythrocyte 20S β1c (caspase-like) site, constitutive proteasome (Homo sapiens, UniProt P28072+Q99436); assay: Purified human 20S-PA28 peptidase assay, β1c site; type: biochemical
[3] = target: human peripheral blood monocyte 20S β1i site, immunoproteasome (Homo sapiens, UniProt P28065+P40306); assay: Purified human 20S-PA28 peptidase assay, β1i site; type: biochemical
[4] = target: human erythrocyte 20S β2c (trypsin-like) site, constitutive proteasome (Homo sapiens, UniProt P49720+Q99436); assay: Purified human 20S-PA28 peptidase assay, β2c site; type: biochemical
[5] = target: human peripheral blood monocyte 20S β2i site, immunoproteasome (Homo sapiens, UniProt P40306+P49720); assay: Purified human 20S-PA28 peptidase assay, β2i site; type: biochemical
[6] = target: human peripheral blood monocyte 20S β5i site, immunoproteasome (Homo sapiens, UniProt P20618+P28062); assay: Purified human 20S-PA28 peptidase assay, β5i site; type: biochemical
[7] = target: human erythrocyte 20S β5 site (Homo sapiens, UniProt P20618+P28074); assay: Kinetic analysis of purified 20S inhibition; type: biochemical
[8] = tested on: 4xUb-Luc reporter in MDA-MB-231 cells; assay: 4xUb-Luc reporter accumulation assay; type: cell-based; conditions: for MDA231 4xUb-Luc Maximal induction: 8 h with compound, over DMSO control
MDA-MB-231 cells = assay: ATPlite cell viability assay, MDA-MB-231; type: cell-based; conditions: Homo sapiens, MDA-MB-231, 72 h, read-out: Cell viability MDA-MB-231 LC50
[9] = tested on: MDA-MB-231, Calu6, H460, HCT116 and HT29 cells; assay: ATPlite cell viability assays across cancer cell lines; type: cell-based; conditions: 72 h, read-out: LC50 values across a panel of five cancer cell lines
Cathepsin L = Cathepsin L (Homo sapiens, UniProt P07711); assay: Protease selectivity assay, cathepsin L; type: biochemical
[10] = target: Coagulation Factor β-XIIa (Homo sapiens, UniProt P00748); assay: Protease selectivity assay, coagulation Factor β-XIIa; type: biochemical
Thrombin = Thrombin (Homo sapiens, UniProt P00734); assay: Protease selectivity assay, thrombin; type: biochemical
[11] = target: Tissue plasminogen activator (Homo sapiens, UniProt P00750); assay: Protease selectivity assay, tissue plasminogen activator; type: biochemical
Trypsin = assay: Protease selectivity assay, trypsin; type: biochemical, human
[12] = tested on: β5 site of the proteasome; conditions: cited from earlier work

Sequence of Cathepsin L (P07711 114-333): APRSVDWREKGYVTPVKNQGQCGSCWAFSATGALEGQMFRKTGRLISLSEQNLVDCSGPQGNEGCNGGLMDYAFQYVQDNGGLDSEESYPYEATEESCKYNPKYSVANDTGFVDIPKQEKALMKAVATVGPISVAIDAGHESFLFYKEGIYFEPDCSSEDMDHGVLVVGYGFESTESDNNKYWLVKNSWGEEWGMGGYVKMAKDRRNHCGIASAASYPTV
Sequence of Coagulation Factor β-XIIa (P00748 373-615 limits assumed, other chains not shown): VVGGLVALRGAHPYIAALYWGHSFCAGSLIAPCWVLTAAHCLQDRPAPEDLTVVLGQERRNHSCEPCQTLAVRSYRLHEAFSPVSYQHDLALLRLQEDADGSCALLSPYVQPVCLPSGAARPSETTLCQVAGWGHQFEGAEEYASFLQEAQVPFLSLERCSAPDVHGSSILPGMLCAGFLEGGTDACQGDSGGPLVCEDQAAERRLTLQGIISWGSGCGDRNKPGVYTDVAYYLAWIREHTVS
Sequence of Tissue plasminogen activator (P00750 36-562): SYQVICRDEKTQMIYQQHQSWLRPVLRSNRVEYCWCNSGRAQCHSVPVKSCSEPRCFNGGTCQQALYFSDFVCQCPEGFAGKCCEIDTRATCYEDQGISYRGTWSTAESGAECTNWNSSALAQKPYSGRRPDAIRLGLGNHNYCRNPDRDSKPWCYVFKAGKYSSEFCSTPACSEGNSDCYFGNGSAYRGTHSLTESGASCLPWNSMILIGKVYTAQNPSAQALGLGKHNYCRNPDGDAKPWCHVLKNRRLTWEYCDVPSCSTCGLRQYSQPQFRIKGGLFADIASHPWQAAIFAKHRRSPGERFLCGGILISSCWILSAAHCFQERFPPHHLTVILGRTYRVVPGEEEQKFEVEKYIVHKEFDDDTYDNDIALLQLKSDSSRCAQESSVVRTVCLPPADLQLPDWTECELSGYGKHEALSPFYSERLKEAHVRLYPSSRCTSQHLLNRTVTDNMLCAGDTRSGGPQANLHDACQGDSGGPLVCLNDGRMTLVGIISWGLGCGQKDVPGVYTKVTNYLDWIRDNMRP

Row | SMILES | inhibition of bulk protein turnover ([1]; HCT116 cells, 3 μM compound) | IC50 [2] [nM] | IC50 [3] [nM] | IC50 [4] [nM] | IC50 [5] [nM] | IC50 [6] [nM] | Ki [7] [nM] | accumulation of the 4xUb-Luc reporter, up to ([8]; 8 h, highest effect observed) | MDA231 4xUb-Luc Maximal induction [8] [fold] | CC50 (MDA-MB-231 cells) [nM] | CC50 [9] [nM] | Enzyme inhibition at 100 μM compound, Cathepsin L (Cathepsin L) [%] | Enzyme inhibition at 100 μM compound, Coagulation Factor β-XIIa [10] [%] | Enzyme inhibition at 100 μM compound, Thrombin (Thrombin) [%] | Enzyme inhibition at 100 μM compound, Tissue plasminogen activator [11] [%] | Enzyme inhibition at 100 μM compound, Trypsin (Trypsin) [%] | inhibition at 3 µM ([1]; Homo sapiens, HCT-116, read-out: inhibition of bulk protein turnover) [%] | t½ for dissociation from the β5 site [12]
1 | C[C@@]12OC(=O)[C@]1([C@@H](O)[C@@H]1C=CCCC1)NC(=O)[C@@H]2CCCl [ML858] | comparable | – | – | – | – | – | – | – | – | – | – | – | – | – | – | – | – | –
2 | Cc1ccc(CNC(=O)[C@H](CCc2ccccc2)NC(=O)[C@H](CCc2ccccc2)NC(=O)[C@H](CCc2ccccc2)NC(=O)c2cnc(C)cn2)cc1 [Compound 1, 5-methyl-N-((S)-1-((S)-1-((S)-1-(4-methylbenzylamino)-1-oxo-4-phenylbutan-2-ylamino)-1-oxo-4-phenylbutan-2-ylamino)-1-oxo-4-phenylbutan-2-yl)pyrazine-2-carboxamide] | – | 28000 | > 100000 | 57000 | > 100000 | 8.9 | 0.5 ± 0.12 | approx. 100 fold | 52±16 | 150 ± 23 | 50 to 380 | < 50 | < 50 | < 50 | < 50 | < 50 | – | –
3 | CC(C)C[C@H](NC(=O)[C@H](Cc1ccccc1)NC(=O)c1cnccn1)B(O)O [Bortezomib] | – | – | – | – | – | – | – | – | 340±12 | – | – | – | – | – | – | – | ~50 | ~ 110 min
